The record followed here is ChEMBL document CHEMBL1136557, “2-Phenylspiroindenes: a novel class of selective estrogen receptor modulators (SERMs)” (Bioorg Med Chem Lett, 2003).

Assay [1] deals with T1, Estrogen receptor (Rattus norvegicus, UniProt P06211).
T1 sequence (P06211 whole entry): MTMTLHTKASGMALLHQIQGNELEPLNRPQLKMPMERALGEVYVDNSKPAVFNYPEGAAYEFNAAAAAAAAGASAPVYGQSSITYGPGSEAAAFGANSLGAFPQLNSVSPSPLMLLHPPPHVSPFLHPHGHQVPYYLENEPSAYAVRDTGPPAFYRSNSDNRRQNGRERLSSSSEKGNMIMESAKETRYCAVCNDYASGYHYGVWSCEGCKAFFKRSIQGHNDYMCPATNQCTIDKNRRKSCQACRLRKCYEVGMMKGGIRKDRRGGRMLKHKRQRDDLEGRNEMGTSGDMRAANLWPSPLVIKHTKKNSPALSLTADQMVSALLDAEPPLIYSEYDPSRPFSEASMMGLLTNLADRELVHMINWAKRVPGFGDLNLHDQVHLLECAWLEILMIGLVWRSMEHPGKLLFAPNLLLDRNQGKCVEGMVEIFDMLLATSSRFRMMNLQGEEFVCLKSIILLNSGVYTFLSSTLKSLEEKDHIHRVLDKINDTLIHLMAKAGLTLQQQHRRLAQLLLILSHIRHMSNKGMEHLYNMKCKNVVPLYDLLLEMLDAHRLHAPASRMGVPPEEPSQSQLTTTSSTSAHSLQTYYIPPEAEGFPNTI
As to the kind of experiment: Binding affinity for Rat Estrogen receptor-alpha.

The target in assay [2] is T2, Estrogen receptor (Homo sapiens, UniProt P03372).
T2 sequence (P03372 whole entry): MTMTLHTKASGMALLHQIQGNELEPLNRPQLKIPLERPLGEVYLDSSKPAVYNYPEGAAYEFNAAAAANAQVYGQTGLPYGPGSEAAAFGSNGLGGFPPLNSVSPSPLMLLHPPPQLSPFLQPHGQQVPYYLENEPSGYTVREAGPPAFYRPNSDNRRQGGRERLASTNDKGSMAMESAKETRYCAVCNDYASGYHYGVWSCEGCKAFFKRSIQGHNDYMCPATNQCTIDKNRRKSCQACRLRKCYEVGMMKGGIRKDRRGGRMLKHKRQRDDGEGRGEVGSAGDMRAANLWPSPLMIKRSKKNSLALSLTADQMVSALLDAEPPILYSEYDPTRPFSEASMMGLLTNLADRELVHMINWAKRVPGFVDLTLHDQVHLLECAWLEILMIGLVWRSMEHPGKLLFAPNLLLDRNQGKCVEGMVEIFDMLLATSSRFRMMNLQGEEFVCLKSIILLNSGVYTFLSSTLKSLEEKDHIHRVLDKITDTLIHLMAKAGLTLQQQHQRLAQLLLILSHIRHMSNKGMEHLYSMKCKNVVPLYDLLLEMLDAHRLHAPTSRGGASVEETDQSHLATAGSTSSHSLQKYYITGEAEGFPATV
Description: Binding affinity for Human Estrogen receptor-alpha

Assay [3] addresses Estrogen receptor beta (Homo sapiens, UniProt Q92731).
Description: Binding affinity for Human Estrogen receptor-beta
The target in assay [4] is Estrogen receptor beta (Rattus norvegicus, UniProt Q62986). Kind of assay: Binding affinity foor Rat Estrogen receptor-beta.

In general, IC50 refers to the concentration that inhibits the measured activity by half. Read a low IC50 as greater potency.

Estrogen receptor beta (Rattus norvegicus, UniProt Q62986), sequence (Q62986 whole entry): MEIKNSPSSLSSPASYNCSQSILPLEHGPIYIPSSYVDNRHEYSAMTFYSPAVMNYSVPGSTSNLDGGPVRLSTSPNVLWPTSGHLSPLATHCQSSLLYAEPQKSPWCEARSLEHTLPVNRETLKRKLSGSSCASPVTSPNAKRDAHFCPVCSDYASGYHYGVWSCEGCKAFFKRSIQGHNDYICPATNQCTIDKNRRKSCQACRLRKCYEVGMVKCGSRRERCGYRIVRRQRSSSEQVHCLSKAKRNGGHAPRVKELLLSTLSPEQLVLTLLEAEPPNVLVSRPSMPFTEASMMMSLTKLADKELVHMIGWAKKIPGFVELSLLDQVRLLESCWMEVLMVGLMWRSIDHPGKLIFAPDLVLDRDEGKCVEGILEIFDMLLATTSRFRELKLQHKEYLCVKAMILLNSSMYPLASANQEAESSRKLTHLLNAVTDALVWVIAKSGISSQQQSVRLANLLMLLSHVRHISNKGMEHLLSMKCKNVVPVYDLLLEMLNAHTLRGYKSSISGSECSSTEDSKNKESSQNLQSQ
Estrogen receptor beta (Homo sapiens, UniProt Q92731), sequence (Q92731 whole entry): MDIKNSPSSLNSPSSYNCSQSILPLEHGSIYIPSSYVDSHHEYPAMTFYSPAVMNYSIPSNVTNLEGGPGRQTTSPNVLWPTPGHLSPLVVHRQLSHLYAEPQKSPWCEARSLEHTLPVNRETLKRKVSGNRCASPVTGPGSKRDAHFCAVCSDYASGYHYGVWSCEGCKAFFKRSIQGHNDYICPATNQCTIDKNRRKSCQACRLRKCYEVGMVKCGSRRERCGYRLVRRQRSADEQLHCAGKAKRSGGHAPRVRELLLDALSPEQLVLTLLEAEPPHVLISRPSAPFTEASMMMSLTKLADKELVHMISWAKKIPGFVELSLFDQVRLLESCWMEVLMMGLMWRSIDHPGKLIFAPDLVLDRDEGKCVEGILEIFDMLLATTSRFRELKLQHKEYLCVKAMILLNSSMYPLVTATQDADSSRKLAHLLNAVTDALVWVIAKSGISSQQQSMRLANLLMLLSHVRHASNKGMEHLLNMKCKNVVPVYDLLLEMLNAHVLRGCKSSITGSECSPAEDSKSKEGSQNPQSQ

Regarding `Oc1cccc(C2=Cc3ccc(O)cc3C23Cc2ccccc2C3)c1`, the IC50 in assay [1] turned out to be 16 nM; in assay [2], 31 nM; in assay [3], 12 nM; in assay [4], 15 nM.
Turning to `Oc1ccc2c(c1)C=C(c1ccccc1)C21Cc2ccccc2C1`, the IC50 in assay [2] worked out at 24 nM; in assay [3] it was 21 nM.
On to `CC1=C(c2ccc(O)cc2)C2(Cc3ccccc3C2)c2ccc(O)cc21`, for which the IC50 in assay [1] came to 2.2 nM; in assay [2], 19 nM; in assay [3], 5.9 nM; in assay [4], 1.2 nM.
Take `Oc1cccc(C2=Cc3cc(O)ccc3C23Cc2ccccc2C3)c1`: the concentration for half-maximal inhibition (IC50) is 34 nM in assay [1], 28 nM in assay [2], 23 nM in assay [3] and 29 nM in assay [4].
On the same counts, the results for `Oc1ccc(C2=Cc3cc(O)ccc3C23Cc2ccc(OCCN4CCCCC4)cc2C3)cc1` (centres undefined) are 1.7 nM, 1 nM, 1.9 nM and 2.7 nM.
`Oc1ccc(C2=Cc3cc(O)ccc3C23Cc2ccccc2C3)cc1`: the IC50 in assay [2] came to 4.3 nM; in assay [3] it was 2.1 nM; in assay [4], 1.1 nM.
In the case of `C1=C(c2ccccc2)C2(Cc3ccccc3C2)c2ccccc21`, the IC50 in assay [1], in assay [2], in assay [3] and in assay [4] was more than 10000 nM in each case.
For the compound `Oc1ccc2c(c1)CC1(C2)C(c2ccccc2)=Cc2ccccc21` (centres undefined), the IC50 is 114 nM in assay [1], 58 nM in assay [2], 429 nM in assay [3] and 1070 nM in assay [4].
